Measured values reported in US5304554A, “4-[(alkyl or dialkyl)amino]quinolines and their method of preparation” (Emory University, priority 1992, dated 1994).
“Also recorded” adds a separate entry of the source.

Key:
HIV-1 (strain LAV) = assay: Anti-HIV-1 activity in human PBM cells infected with HIV-1 (strain LAV), reverse transcriptase readout; format: cell-based; conditions: Human immunodeficiency virus 1, PBMC, read-out: Median effective concentration (EC50) against HIV-1
Method: The median effective concentrations (EC50) of selected quinolines against HIV-1 were determined in human blood mononuclear (PBM) cells infected with HIV-1 (strain LAV) as described below. […] It appears that the presence of a heteraromatic substituent at position 2 of the quinoline enhances the anti-HIV-1 activity of the 4-[(alkyl and dialkyl)amino]quinoline derivative. The anti-HIV-1 activity appears to be diminished in compounds with large substituents attached to the 4-amino group.
The following procedure was used to determine the EC50 values for selected compounds.
A. Three-day-old phytohemagglutinin-stimulated PBM cells (10^6 cells/ml) from hepatitis B and HIV-1 seronegative healthy donors were infected with HIV-1 (strain LAV) at a concentration of about 100 times the 50% tissue culture infectious dose (TICD 50) per ml and cultured in the presence and absence of various concentrations of quinolines.
B. Approximately 45 minutes after infection, medium, with the compound to be tested (2 times the final concentration in medium) or without compound, was added to the flasks (5 ml; final volume 10 ml). AZT was used as a positive control.
C. The cells were exposed to HIV (about 2×10^5 dpm/ml, as determined by reverse transcriptase assay) and then placed in a CO2 incubator. HIV-1 (strain LAV) was obtained from the Center for Disease Control, Atlanta, Ga. The methods used for culturing the PBM cells, harvesting the virus and determining the reverse transcriptase activity were those described by McDougal et al. (J. Immun. Meth. 76, 171-183, 1985) and Spira et al. (J. Clin. Meth. 25, 97-99, 1987), except that fungizone was not included in the medium (see Schinazi, et al., Antimicrob. Agents Chemother. 32, 1784-1787 (1988)). The reverse transcriptase activity in the virus-infected control was about 2×10^5 dpm per ml. Blank and uninfected cell control values were about 300 and 1,000 dpm, respectively.
D. On day 6, the cells and media were transferred to a 15 ml tube and centrifuged at about 900 g for 10 minutes. Five ml of supernatant were removed and the virus concentrated by centrifugation at 40,000 rpm for 30 minutes (Beckman 70.1 Ti rotor). The solubilized virus pellet was processed for determination of the levels of reverse transcriptase. Results are expressed in dpm/ml of sampled supernatant.
The median effective (EC50) concentrations for derivatized quinolines, were determined by the median effect method (Antimicrob. Agents Chemother. 30: 491-498, 1986). Briefly, in the median effect method, the percent inhibition of virus, as determined from measurements of reverse transcriptase, is plotted versus the micromolar concentration of compound. The EC50 is the concentration of compound at which there is a 50% inhibition of viral replication.

[1] = Toxicity (growth) in uninfected human peripheral blood mononuclear (PBM) cells; format: cell-based; conditions: 6 days, trypan blue exclusion, read-out: IC50, growth of uninfected PBM cells
Method: The toxicity of 6a,6d,8a, and 8c were determined in […] PBM cells (3.8×10^5 cells/ml) cultured in the presence and absence of compounds under conditions similar to those used for the antiviral assay described above but without virus. The cells were counted after 6 days using a hemacytometer and the trypan blue exclusion method, as described by Schinazi et al., Antimicrobial Agents and Chemotherapy, 22(3), 499 (1982).
The effect of the compounds on the growth of uninfected human PBM cells in culture is used as an indicator of the toxicity of the test compound to the normal viability of cells. The IC50 is the concentration of compound which inhibits 50% of normal, uninfected, cell growth.

DNA = conditions: Hahn et al. 1966; cited from earlier work
[2] = test system: antimalarial and antiamoebic activity; conditions: Hahn et al.; cited from earlier work
[3] = infants and children, high dosages; cited from earlier work
[4] = test system: Plasmid pBR322 superhelical DNA; conditions: reference value; cited from earlier work

| Structure (SMILES) | EC50 (HIV-1 (strain LAV)) [µM] | also measured |
| --- | --- | --- |
| CN(C)CCNc1cc(-c2cccnc2)nc2ccccc12 [Quinoline 6a] | 1.5 | CC50 at 144 h [1]: > 100 µM |
| CCN(CCN(C)C)c1cc(-c2ccccn2)nc2ccccc12 [Quinoline 5b] | 13.2 |  |
| CN(C)CCNc1cc(-c2ccccn2)nc2ccccc12 [Quinoline 5a] | 1.1 |  |
| CN1CCN(c2cc(-c3cccnc3)nc3ccccc23)CC1 [Quinoline 6d] | 1 | CC50 at 144 h [1]: > 100 µM |
| CCN(CC)CCCC(C)Nc1ccnc2cc(Cl)ccc12 (centres unmarked) [chloroquine, 7-chloro-4-(4-diethylamino-1-methylbutylamino)quinoline] |  | Inhibition of nucleic acid biosynthesis (in words) (DNA): inhibits nucleic acid biosynthesis by forming a molecular complex with DNA; Antimalarial and antiamoebic activity (in words) [2]: have antimalarial and antiamoebic activity; Adverse effects (in words) [3]: Sudden deaths have been reported; also recorded: infants and children are extremely susceptible to adverse effects |
| CCN(CC)CCCC(C)Nc1c2ccc(Cl)cc2nc2ccc(OC)cc12 (centres unmarked) [quinacrine, 6-chloro-9-[[4-(diethylamino)-1-methylbutyl]amino]-2-methoxyacridine] |  | Antimalarial and antiamoebic activity (in words) [2]: have antimalarial and antiamoebic activity |
| CCN(CCN(C)C)c1cc(-c2cccnc2)nc2ccccc12 [Quinoline 6b] | 24.2 |  |
| CC[n+]1c(-c2ccccc2)c2cc(N)ccc2c2ccc(N)cc21 [ethidium] |  | Unwinding angle [4]: 26 |
| CN1CCN(c2cc(-c3ccccn3)nc3ccccc23)CC1 [Quinoline 5d] | 5.5 |  |

Continued, in another order:

| EC50 (HIV-1 (strain LAV)) [µM] | Structure (SMILES) | also measured |
| --- | --- | --- |
| 32.4 | CCN(CCN(C)C)c1cc(-c2cccs2)nc2ccccc12 [Quinoline 9c] |  |
| 1 | CN(C)CCNc1cc(-c2cccs2)nc2ccccc12 [Quinoline 9a] |  |
| 1 | CN1CCN(c2cc(-c3ccco3)nc3ccccc23)CC1 [Quinoline 8c] | CC50 at 144 h [1]: > 100 µM |
| 0.9 | CN(C)CCNc1cc(-c2ccco2)nc2ccccc12 [Quinoline 8a] | CC50 at 144 h [1]: > 100 µM |
| 68.2 | CN1CCN(c2cc(-c3ccncc3)nc3ccccc23)CC1 [Quinoline 7c] |  |
